Our source for the melting point values is US8486977B2, “1,2,3-triazole derivatives for use as stearoyl-CoA desaturase inhibitors” (GlaxoSmithKline LLC, priority 2007, dated 2013).

The melting point is the temperature, or range, at which the solid turns liquid. Consider `Cc1c(NC(=O)c2ccc(CO)cc2)nnn1Cc1ccc(Cl)c(Cl)c1` [Example 93, N-{1-[(3,4-Dichlorophenyl)methyl]-5-methyl-1H-1,2,3-triazol-4-yl}-4-(hydroxymethyl)benzamide], for which the melting point came out at 160 °C.

`Cc1c(C(=O)Nc2cccc(OCCO)c2)nnn1Cc1ccc(Cl)c(Cl)c1` [Example 78, 1-[(3,4-Dichlorophenyl)methyl]-N-{3-[(2-hydroxyethyl)oxy]phenyl}-5-methyl-1H-1,2,3-triazole-4-carboxamide]: the melting point was 144.9 °C.

Consider `Cc1c(C(=O)Nc2ccc(-c3ncco3)cc2)nnn1Cc1ccc(Cl)c(Cl)c1` [Example 15, 1-[(3,4-Dichlorophenyl)methyl]-5-methyl-N-[4-(1,3-oxazol-2-yl)phenyl]-1H-1,2,3-triazole-4-carboxamide], for which the melting point is 218 °C.

For `Cc1c(C(=O)Nc2ccc(OCCC(C)C)cc2)nnn1Cc1ccccc1`, the melting point came out at 124 °C.

`CCOC(=O)Cc1ccc(NC(=O)c2nnn(Cc3ccc(Cl)c(Cl)c3)c2C)cc1` [Example 27, Ethyl {4-[({1-[(3,4-dichlorophenyl)methyl]-5-methyl-1H-1,2,3-triazol-4-yl}carbonyl)amino]phenyl}acetate] came in with a melting point of 139 °C.

Molecule `CNC(=O)c1ccc(OC)c(NC(=O)c2nnn(Cc3ccc(Cl)c(Cl)c3)c2C)c1` [Example 69, 1-[(3,4-Dichlorophenyl)methyl]-5-methyl-N-[5-[(methylamino)carbonyl]-2-(methyloxy)phenyl]-1H-1,2,3-triazole-4-carboxamide] returned a melting point of 222.2 °C.

For the molecule `COC(=O)c1ccc(F)c(NC(=O)c2nnn(Cc3ccc(Cl)c(Cl)c3)c2C)c1` [Example 36, Methyl 3-[({1-[(3,4-dichlorophenyl)methyl]-5-methyl-1H-1,2,3-triazol-4-yl}carbonyl)amino]-4-fluorobenzoate], the melting point was 195.7 °C.

For the molecule `COC(=O)c1ccc(OC)c(NC(=O)c2nnn(Cc3cc(Cl)cc(Cl)c3)c2C)c1` [Example 41, Methyl 3-[({1-[(3,5-dichlorophenyl)methyl]-5-methyl-1H-1,2,3-triazol-4-yl}carbonyl)amino]-4-(methyloxy)benzoate], the melting point is 213 °C.

For `Cc1c(C(=O)Nc2ccc(CCO)cc2)nnn1Cc1ccc(Cl)c(Cl)c1` [Example 50, 1-[(3,4-Dichlorophenyl)methyl]-N-[4-(2-hydroxyethyl)phenyl]-5-methyl-1H-1,2,3-triazole-4-carboxamide], the melting point stood at 144 °C.

In turn, `Cc1c(C(=O)Nc2cccc(C(C)O)c2)nnn1Cc1ccc(Cl)c(Cl)c1` (centres unmarked) [Example 44, 1-[(3,4-Dichlorophenyl)methyl]-N-[3-(1-hydroxyethyl)phenyl]-5-methyl-1H-1,2,3-triazole-4-carboxamide] gave a melting point of 145 °C.

As for `Cc1c(C(=O)Nc2ccc(C(=O)O)cc2)nnn1Cc1ccc(Cl)c(Cl)c1` [Example 66, 4-[({1-[(3,4-Dichlorophenyl)methyl]-5-methyl-1H-1,2,3-triazol-4-yl}carbonyl)amino]benzoic acid], the melting point is > 260 °C.

In turn, `COc1ccc(C(=O)O)cc1NC(=O)c1nnn(Cc2ccc(Cl)c(Cl)c2)c1C` [Example 64, 3-[({1-[(3,4-Dichlorophenyl)methyl]-5-methyl-1H-1,2,3-triazol-4-yl}carbonyl)amino]-4-(methyloxy)benzoic acid] gave a melting point of 243.9 °C.

With `COC(=O)c1cc(NC(=O)c2nnn(Cc3cc(Cl)cc(Cl)c3)c2C)ccc1F` [Example 47, Methyl 5-[({1-[(3,5-dichlorophenyl)methyl]-5-methyl-1H-1,2,3-triazol-4-yl}carbonyl)amino]-2-fluorobenzoate], the melting point was determined as 191 °C.

`COc1cc(CO)ccc1NC(=O)c1nnn(Cc2ccc(Cl)c(Cl)c2)c1C` [Example 49, 1-[(3,4-Dichlorophenyl)methyl]-N-[4-(hydroxymethyl)-2-(methyloxy)phenyl]-5-methyl-1H-1,2,3-triazole-4-carboxamide] returned a melting point of 136 °C.

In the case of `CNC(=O)c1cccc(NC(=O)c2nnn(Cc3ccc(Cl)c(Cl)c3)c2C)c1` [Example 18, 1-[(3,4-Dichlorophenyl)methyl]-5-methyl-N-{3-[(methylamino)carbonyl]phenyl}-1H-1,2,3-triazole-4-carboxamide], the melting point worked out at 203.9 °C.

Regarding `Cc1c(C(=O)Nc2ccc(Cl)c(CO)c2)nnn1Cc1ccc(Cl)c(Cl)c1` [Example 45, N-[4-Chloro-3-(hydroxymethyl)phenyl]-1-[(3,4-dichlorophenyl)methyl]-5-methyl-1H-1,2,3-triazole-4-carboxamide], the melting point amounted to 190.3 °C.

Take `Cc1c(C(=O)Nc2cccc(O)c2)nnn1Cc1ccc(Cl)c(Cl)c1`: the melting point came out at 192.5 °C.

`Cc1c(C(=O)Nc2ccc(CO)c(CO)c2)nnn1Cc1cccc(F)c1` [Example 85, N-[3,4-bis(Hydroxymethyl)phenyl]-1-[(3-fluorophenyl)methyl]-5-methyl-1H-1,2,3-triazole-4-carboxamide]: the melting point was 157.2 °C.

The molecule `CC(=O)Nc1ccc(NC(=O)c2nnn(Cc3ccc(Cl)c(Cl)c3)c2C)cc1` [Example 22, N-[4-(Acetylamino)phenyl]-1-[(3,4-dichlorophenyl)methyl]-5-methyl-1H-1,2,3-triazole-4-carboxamide] gave a melting point of 202.4 °C.

Consider `Cc1ccc(Cn2nnc(C(=O)Nc3ccc(OCCC(C)C)cc3)c2C)cc1`, for which the melting point was determined as 105 °C.

`Cc1c(C(=O)Nc2ccc(CO)c(CO)c2)nnn1Cc1ccccc1` [Example 80, N-[3,4-bis(Hydroxymethyl)phenyl]-5-methyl-1-(phenylmethyl)-1H-1,2,3-triazole-4-carboxamide] gave a melting point of 171.4 °C.

`Cc1c(CO)cccc1NC(=O)c1nnn(Cc2ccc(Cl)c(Cl)c2)c1C` [Example 23, 1-[(3,4-Dichlorophenyl)methyl]-N-[3-(hydroxymethyl)-2-methylphenyl]-5-methyl-1H-1,2,3-triazole-4-carboxamide] yielded a melting point of 174.3 °C.

In the case of `Cc1c(C(=O)Nc2ccc(CO)c(CO)c2)nnn1Cc1ccc(F)cc1` [Example 83, N-[3,4-bis(Hydroxymethyl)phenyl]-1-[(4-fluorophenyl)methyl]-5-methyl-1H-1,2,3-triazole-4-carboxamide], the melting point was determined as 175.5 °C.

`Cc1c(C(=O)Nc2cccc(CCO)c2)nnn1Cc1ccc(Cl)c(Cl)c1` [Example 62, 1-[(3,4-Dichlorophenyl)methyl]-N-[3-(2-hydroxyethyl)phenyl]-5-methyl-1H-1,2,3-triazole-4-carboxamide]: the melting point was 142 °C.

`Cc1c(C(=O)Nc2cccc(C(=O)O)c2)nnn1Cc1ccc(Cl)c(Cl)c1` [Example 63, 3-[({1-[(3,4-Dichlorophenyl)methyl]-5-methyl-1H-1,2,3-triazol-4-yl}carbonyl)amino]benzoic acid] registered a melting point of 267.6 °C.

The molecule `COC(=O)c1ccc(NC(=O)c2nnn(Cc3ccc(Cl)c(Cl)c3)c2C)c(OC)c1` [Example 17, Methyl 4-[({1-[(3,4-dichlorophenyl)methyl]-5-methyl-1H-1,2,3-triazol-4-yl}carbonyl)amino]-3-(methyloxy)benzoate] came in with a melting point of 212 °C.
